Patent publication US7122336B2, “Therapeutic and diagnostic methods for ulcerative colitis and associated disorders” (University of Medicine & Dentistry of New Jersey, priority 2000, dated 2006)
“Also recorded” adds a separate entry of the source.

How the values were obtained:
[1] = test system: secretion of hTM5 in LS-180 cells; assay: Secretion of hTM5 by 35S-methionine-labeled LS-180 cells (chase with drugs, immunoprecipitation of culture medium, SDS-PAGE-fluorography, densitometry of 31 kDa band); assay type: cell-based, human; conditions: PMA 10 μM; for effect of inhibitors of secretion on the secretion of hTM5 (in words): LC-1 immunoprecipitation (FIG. 7D), monensin 10 μM, methylamine 10 mM added during the chase; for effect on the secretion of hTM5 (in words): 7E12H12 and LC-1 immunoprecipitations (FIGS. 7B and 7C); for effect on the secretion of hTM5 (in words) / stimulation of the secretion of hTM5 (31 kDa band, densitometry) compared to only DMSO treatment: A23187 2 μM, 2 h chase; for stimulation of the secretion of hTM5 (31 kDa band, densitometry) compared to only DMSO treatment: LS-180 culture medium
Protocol: (§1) A) Culture supernatant of LS-180 cells, labeled with […] (100 μCi/ml) for 16 h and chased for 2 h incubated with various drugs, was immunoprecipitated and analyzed by 3–12% SDS-PAGE-fluorography. For untreated cells, 10 μl/ml of DMSO was added during the chase. Immunoprecipitation was performed using 7E12H12 (lanes 1–4) or LC-1 (lanes 5–8) mAbs. Lanes 1 and 5 show the immunoprecipitation profile of the culture supernatant from untreated cells. Note the presence of a 31 kDa protein in lanes 1 and 5. The effect of secretagogues was examined by addition of 2 μM A23187 (lanes 2 and 7) or 10 μM PMA (lanes 3 and 6) during the chase. To examine the combined effect, A23187 (2 μM) and PMA (10 μM) were added together (lanes 4 and 8, respectively). B and C) For quantitative determination, a densitometric analysis of the 31 kDa band, coimmunoprecipitated with CEP (lanes 1–4) or hTM5 (lane 5–8) was performed with a 1 square millimeter window using a BioRad 670 densitometer after overnight exposure of the gel. Histograms B and C represent lanes 1–4 and 5–8 respectively. D) Effect of inhibitors of secretion on the secretion of hTM5. The inhibitors were added during the chase and the culture medium was immunoprecipitated with LC-1 mAb. Lane-1: PMA (10 μM), Lane-2: DMSO only, Lane-3: monensin (10 μM), and Lane-4: methylamine (10 mM) and analyzed by 3–12% gradient SDS-PAGE-fluorography.
To examine the possible association of hTM5 with the colon epithelium-specific protein (CEP), reactive with 7E12H12 monoclonal antibody, we adopted the protocols for radiolabeling, chase and drug treatment used in the study of regulated and unregulated secretion of glycoproteins from colon cancer cells (McCool DJ., et al., Biochem J. 1995; 312: 125–33; and Brion C., et al., J. Biol. Chem. 1992; 267: 1477–83). LS-180 cells were labeled with ^35S-methionine by treatment with methionine-free medium supplemented with 5% dialyzed fetal bovine serum and ^35S-methionine (100 μCi/ml) for 16 hours. Labeling was terminated by washing the cells two times with PBS followed by chase with regular DME for 2 hr. To examine the effects of stimulators and inhibitors of secretion, appropriate drugs were added during the chase period as described (McCool et al., supra; and Brion, et al., supra). Immunoprecipitations were performed on the culture medium as described in Kesari, K V and Geliebter, J. Immunol. Letts 1993: 38: 77–83. After the chase, the culture medium was collected, centrifuged to remove any insoluble material, and mixed with one tenth volume of 10× lysis buffer (500 mM Tris Cl, […], 5% NP40, and protease inhibitor cocktail, Complete, Boehringer-Mannheim, GMBH, Germany). To reduce nonspecific binding, the culture medium, where LS-180 cells were grown, was preabsorbed with protein G agarose (GIBCO-BRL, NY) for 16 h at 4° C. Immunoprecipitation was carried out on ice with purified monoclonal antibodies (5 μg/ml) or ascites (10 μl/ml) for 2 h and the immune complexes were collected on Protein G Agarose. To collect IgM immune complexes, protein G Agarose was pre-coated with affinity purified rabbit anti mouse IgM-μ chain-specific immunoglobulins (2 mg IgG/ml gel). The immune complexes were washed three times by centrifugation with ice cold washing buffer-1 (50 mM Tris Cl, pH 7.4, 150 mM NaCl, 5 mM EDTA, and 0.5% NP40), followed by one wash in buffer-2 (50 mM Tris Cl, pH 7.4, 500 mM MaCl, 5 mM EDTA, and 0.5% NP40), and once with buffer-3 (50 mM Tris Cl, pH 7.4).
To investigate whether the release of hTM5 from LS-180 cells is an active process, the effect of known stimulators (secretagogues), and inhibitors of secretion was examined in the present invention. Two secretagogues, the Ca ^2 ionophore A23187, and phorbol-12-myristate-13-acetate (PMA) have been used to explore the secretory pathways in LS-180 cells (McCool D J et al (1995) supra). […]

[2] = test system: mucin secretion in LS-180 cells; conditions: McCool D J, et al. (1995); cited from earlier work
[3] = test system: secretion of CEP in LS-180 cells; assay: Secretion of CEP by 35S-methionine-labeled LS-180 cells (immunoprecipitation with 7E12H12); assay type: cell-based, human; conditions: 7E12H12 immunoprecipitation (FIG. 7A, lanes 1-4); A23187 2 μM, PMA 10 μM, or both
Protocol: as §1, with “gradient SDS-PAGE-fluorography. […]” for “gradient SDS-PAGE-fluorography.”

CEP = assay: Cell surface expression of CEP; assay type: cell-based

Row | SMILES | effect of inhibitors of secretion on the secretion of hTM5 (in words) [1] | effect on mucin secretion in LS-180 cells [2] | effect on the secretion of hTM5 (in words) [1] | stimulation of the secretion of hTM5 (31 kDa band, densitometry) compared to only DMSO treatment ([1]; 7E12H12 immunoprecipitation (FIG. 7B)) [fold] | stimulation of the secretion of hTM5 (31 kDa band, densitometry) compared to only DMSO treatment ([1]; LC-1 immunoprecipitation (FIG. 7C)) [fold] | effect on secretion of CEP (in words) [3] | cell surface expression of CEP, sensitivity to drug (CEP)
1 | CN [methylamine] | inhibited; also recorded: absence of hTM5 | – | – | – | – | – | –
2 | CNc1ccc2oc(C[C@H]3O[C@@]4(CC[C@H]3C)O[C@H]([C@H](C)C(=O)c3ccc[nH]3)[C@H](C)C[C@H]4C)nc2c1C(=O)O [A23187] | – | stimulate | increased | 4.5 | 7.8 | unaffected | –
3 | CC[C@@]1([C@@H]2O[C@@H]([C@H]3O[C@@](O)(CO)[C@H](C)C[C@@H]3C)C[C@@H]2C)CC[C@H]([C@]2(C)CC[C@]3(C[C@H](O)[C@@H](C)[C@@H]([C@@H](C)[C@@H](OC)[C@H](C)C(=O)O)O3)O2)O1 [monensin] | inhibited; also recorded: absence of hTM5 | – | – | – | – | – | sensitive
4 | CCCCCCCCCCCCCC(=O)O[C@@H]1[C@@H](C)[C@@]2(O)[C@@H](C=C(CO)C[C@]3(O)C(=O)C(C)=C[C@@H]23)[C@@H]2C(C)(C)[C@]12OC(C)=O [PMA, phorbol-12-myristate-13-acetate] | absence of hTM5 | stimulate | almost totally inhibited | – | – | unaffected | –
